# Target: T1, Chemerin-like receptor 1 (Homo sapiens, UniProt Q99788)
# T1 sequence (Q99788 whole entry): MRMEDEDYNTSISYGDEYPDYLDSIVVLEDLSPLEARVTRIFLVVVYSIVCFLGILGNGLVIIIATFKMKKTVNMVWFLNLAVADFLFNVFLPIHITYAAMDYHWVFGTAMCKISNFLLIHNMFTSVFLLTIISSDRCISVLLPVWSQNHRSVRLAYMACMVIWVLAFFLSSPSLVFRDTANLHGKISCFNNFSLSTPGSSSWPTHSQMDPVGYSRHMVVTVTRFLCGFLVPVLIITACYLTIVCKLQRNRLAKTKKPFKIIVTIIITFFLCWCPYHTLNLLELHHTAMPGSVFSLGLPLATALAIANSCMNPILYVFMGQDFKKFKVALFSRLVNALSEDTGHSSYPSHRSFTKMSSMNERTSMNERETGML
# Assay: Displacement of [125I]-chemerin from ChemR23 (unknown origin) transfected in mouse BaF3 cells after 3 hrs by scintillation counting method
# Assay type: cell-based
row,IC50,Structure (SMILES)
1,≤ 0.03 µM,COCC1(C(=O)Nc2cc(C(F)(F)F)cc(C(F)(F)F)c2)CC(=O)N(c2c(C)cccc2C)C1 (centres undefined)
2,≤ 0.03 µM,CCC1(C(=O)Nc2cc(C(F)(F)F)cc(C(F)(F)F)c2)CC(=O)N(c2c(C)cccc2C)C1 (centres undefined)
3,≤ 0.03 µM,Cc1ccccc1N1CC(C)(C(=O)Nc2cc(C(F)(F)F)cc(C(F)(F)F)c2)C(C)C1=O (centres undefined)
4,≤ 0.03 µM,Cc1ccccc1N1CC(C(=O)Nc2cc(C(F)(F)F)cc(C(F)(F)F)c2)(C(C)C)CC1=O (centres undefined)
5,0.03 to 0.3 µM,Cc1cccc(C)c1N1CC(CO)(C(=O)Nc2cc(C(F)(F)F)cc(C(F)(F)F)c2)CC1=O (centres undefined)
6,≤ 0.03 µM,Cc1cccc(C)c1N1CC(C(=O)Nc2cc(C(F)(F)F)cc(C(F)(F)F)c2)(C(C)(C)O)CC1=O (centres undefined)
7,≤ 0.03 µM,Cc1cccc(C)c1N1CC(C)(C(=O)Nc2cc(C(F)(F)F)cc(C(F)(F)F)c2)CC1=O (centres undefined)
8,≤ 0.03 µM,Cc1ccccc1N1CC(C)(C(=O)Nc2cc(C(F)(F)F)cc(C(F)(F)F)c2)CC1=O (centres undefined)
9,≤ 0.03 µM,CCCC1(C(=O)Nc2cc(C(F)(F)F)cc(C(F)(F)F)c2)CC(=O)N(c2c(C)cccc2C)C1 (centres undefined)
10,≤ 0.03 µM,Cc1cccc(C)c1N1CC(C(=O)Nc2cc(C(F)(F)F)cc(C(F)(F)F)c2)(C2=CCOCC2)CC1=O (centres undefined)
11,≤ 0.03 µM,Cc1cccc(C)c1N1CC(CC(C)C)(C(=O)Nc2cc(C(F)(F)F)cc(C(F)(F)F)c2)CC1=O (centres undefined)
12,0.03 to 0.3 µM,Cc1cccc(C)c1N1C[C@@](CN2CCC(F)CC2)(C(=O)Nc2cc(C3CC3)cc(C(F)(F)F)c2)[C@H](C)C1=O
13,≤ 0.03 µM,Cc1cccc(C)c1N1CC(C(=O)Nc2cc(C(F)(F)F)cc(C(F)(F)F)c2)(C2=CCN(C(=O)OC(C)(C)C)CC2)CC1=O (centres undefined)
14,0.03 to 0.3 µM,Cc1cccc(C)c1N1CC(O)(C(=O)Nc2cc(C(F)(F)F)cc(C(F)(F)F)c2)CC1=O (centres undefined)

# From ChEMBL document CHEMBL3879908, “Pyrrolidinone carboxamide derivatives” (2014)
